Legend:
Format in all cases: in vivo, human
[1] = tested on: serum parathyroid hormone (PTH); experiment: Phase 1B Dose-Finding Study in Postmenopausal Women: serum PTH in subjects with >60 pg/ml serum PTH at baseline; details: after 28 days
Procedure: (§1) Reference is made to Zella et al., “Novel, Selective Vitamin D Analog Suppresses Parathyroid Hormone in Uremic Animals and Postmenopausal Women, Am J. Nephrology 2014; 39:476-483, May 17, 2014, the content of which is incorporated herein by reference in its entirety. Zella et al. discloses the results from a Phase 1B Dose-Finding Study in Postmenopausal Women in which the participants were administered various doses of 2MD and afterwards, serum parathyroid hormone (PTH) levels and serum calcium levels were monitored. In Zella et al.'s study, post-menopausal women were treated orally once daily with 2MD, calcitriol, or placebo for 28 days. Serum samples for PTH analysis were collected at baseline and 2, 7, 14, and 28 days after the first dose was administered.
In FIG. 1 of the present application, the results from the Phase 1B Dose-Finding Study in Postmenopausal Women from Zella et al. were plotted using only data from subjects that would be classified as having primary hyperparathyroidism or on a watch list for having primary hyperparathyroidism (i.e., subjects having >60 pg/ml serum PTH at baseline). In FIG. 1, the number of subjects administered each dose of 2MD, calcitriol, or placebo, consisted of the following: 0.05 μg 2MD-2 subjects, 0.11 μg 2MD-3 subjects; 0.17 μg 2MD-4 subjects; 0.44 μg 2MD-2 subjects; 0.5 μg calcitriol-1 subject; and placebo-1 subject. As indicated, PTH levels in the subjects administered 2MD at: doses of 0.11 μg, 0.17 μg, and 0.4 μg decreased over time at a level corresponding, to the dose of 2MD. After 28 days, a dose of 2MD of 0.11 μg, 0.17 μg, and. […] (See FIG. 2 and FIG. 3). In summary, 2MD could be administered orally at a daily dose of 0.11 μg-0.44 μg to treat subjects having primary hyperparathyroidism or at risk, for developing primary hyperparathyroidism.

[2] = Phase 1B Dose-Finding Study in Postmenopausal Women: serum calcium levels; details: baseline vs 28 days, orally once daily, subjects with >60 pg/ml serum PTH at baseline
Procedure: as §1
(§2) In FIG. 1 of the present application, the results from the Phase 1B Dose-Finding Study in Postmenopausal Women from Zella et al. were plotted using only data from subjects that would be classified as having primary hyperparathyroidism or on a watch list for having primary hyperparathyroidism (i.e., subjects having >60 pg/ml serum PTH at baseline). In FIG. 1, the number of subjects administered each dose of 2MD, calcitriol, or placebo, consisted of the following: 0.05 μg 2MD-2 subjects, 0.11 μg 2MD-3 subjects; 0.17 μg 2MD-4 subjects; 0.44 μg 2MD-2 subjects; 0.5 μg calcitriol-1 subject; and placebo-1 subject. […]

[3] = Phase 1B Dose-Finding Study in Postmenopausal Women: serum phosphate levels; details: baseline vs 28 days, orally once daily, subjects with >60 pg/ml serum PTH at baseline
Procedure: as §1, §2

Row | Compound | increase in PTH ([1]; 0.05 μg orally once daily) [%] | decrease in PTH ([1]; 0.11 μg orally once daily) [%] | decrease in PTH ([1]; 0.17 μg orally once daily) [%] | decrease in PTH ([1]; 0.4 μg orally once daily) [%] | rise in serum calcium levels [2] | rise in serum phosphate levels [3] | increase in PTH ([1]; 0.5 μg orally once daily) [%]
1 | C=C1[C@H](O)CC(=C/C=C2\CCC[C@@]3(C)C2CCC3[C@@H](C)CCCC(C)(C)O)C[C@H]1O (stereo partly drawn) [2MD, 2-methylene-19-nor-(20S)-1α,25-dihydroxyvitamin D3] | 16 | −7 | −31 | −44 | without increasing serum calcium | without increasing serum calcium or serum phosphate | 
2 | C=C1/C(=C\C=C2/CCC[C@]3(C)[C@@H]([C@H](C)CCCC(C)(C)O)CC[C@@H]23)C[C@@H](O)C[C@@H]1O [calcitriol, reference compound] |  |  |  |  |  |  | 15

From patent US10369161B2, “Use of 2-methylene-19-NOR-(20S)-1-alpha,25-dihydroxyvitamin D3 to treat primary hyperparathyroidism” (Wisconsin Alumni Research Foundation, priority 2014, dated 2019)
